For `CC(C)[C@H]1CC[C@H](N2CCC3(CC2)C(O)CCN3c2ccccc2)CC1.Cl` (mixture of isomers), the melting point was over 250 °C.
In the case of `O=C(O)/C=C/C(=O)O.O=C1CCN(c2ccccc2)C12CCN(C1CCCCCCC1)CC2`, the melting point is reported as 197 °C.
For `Cl.Cl.OC1CCN(c2ccccc2)C12CCN(C1CCCCCCC1)CC2` (racemic), the melting point was 173 °C (dec.).
With `Cc1cccc2c1CC(N1CCC3(CC1)C(=O)CCN3c1ccccc1)C2.Cl` (racemic) the melting point was over 250 °C.
`CC(C)[C@H]1CC[C@H](N2CCC3(CC2)C(=O)CCN3c2ccccc2)CC1.Cl` showed a melting point of 237 to 238 °C.
For `Cl.OC1CCN(c2ccccc2)C12CCN(C1Cc3ccccc3C1)CC2` (racemic), the melting point was over 250 °C.
`CC(C)[C@H]1CC[C@@H](N2CCC3(CC2)C(O)CCN3c2ccccc2)CC1.Cl` (mixture of isomers) showed a melting point of over 250 °C.
For `CC(C)[C@H]1CC[C@@H](N2CCC3(CC2)[C@@H](O)CCN3c2ccccc2)CC1.Cl`, the melting point was over 250 °C.
For `Cl.Cl.OC1CCN(c2ccccc2)C12CCN(C1CCCCCCCC1)CC2` (racemic), the melting point was 170 °C (dec.).
Compound `Cl.OC1CCN(c2ccccc2)C12CCN(C1CCC3CCCCC3C1)CC2` (stereo not shown) has a melting point of over 250 °C.
In the case of `CC(C)[C@H]1CC[C@@H](N2CCC3(CC2)[C@H](O)CCN3c2ccccc2)CC1.Cl`, the melting point is reported as over 250 °C.
For `Cl.Cl.OC1CCN(c2ccccc2)C12CCN(C1CCCCCCCCC1)CC2` (racemic), the melting point was 170 °C (dec.).
In the case of `CC(C)[C@H]1CC[C@@H](N2CCC3(CC2)ON=C(c2ccccc2)N3c2ccccc2)CC1.Cl`, the melting point is reported as 131 °C.
`COC1CCN(c2ccccc2)C12CCN([C@H]1CC[C@@H](C(C)C)CC1)CC2.Cl` (mixture of isomers) showed a melting point of 214 to 215 °C.
Work on `O=C(O)/C=C/C(=O)O.O=C1CCN(c2ccccc2)C12CCN([C@@H]1CC[C@H]3CCCc4cccc1c43)CC2` (racemic) yielded a melting point of 144 °C.
`O=C(O)/C=C/C(=O)O.O=C1CCN(c2ccccc2)C12CCN(C1CCCCCCCCC1)CC2` showed a melting point of 177 °C.
`Cl.O=C1CCN(c2ccccc2)C12CCN(C1Cc3ccccc3C1)CC2` showed a melting point of over 250 °C.
With `Cl.O=C1CCN(c2ccccc2)C12CCN([C@@H]1CC[C@@H]3CCCC[C@@H]3C1)CC2` (racemic) the melting point was 250 to 251 °C (dec.).
For `COC1CCN(c2ccccc2)C12CCN(C1CCCCCCCC1)CC2.O=C(O)/C=C/C(=O)O` (racemic), the melting point was 196 °C (dec.).
`O=C(O)/C=C/C(=O)O.O=C1CCN(c2ccccc2)C12CCN(C1CCCCCCCC1)CC2` showed a melting point of 185 °C.
In the case of `COC1CCN(c2ccccc2)C12CCN(C1CCCCCCCCC1)CC2.Cl.Cl` (racemic), the melting point is reported as 170 °C (dec.).
In the case of `O=C(O)/C=C/C(=O)O.O=C1CCN(c2ccccc2)C12CCN(C1C[C@H]3CCCC[C@H]3C1)CC2` (stereo partly shown), the melting point is reported as 225 °C.
